From patent publication US4036840A, “2-Substituted-s-triazolo[1,5a]pyrimidines” (ICN Pharmaceuticals, priority 1975, dated 1977)
“Also recorded” adds a separate entry of the source.

Columns and labels:
[1] = tested on: anesthetized dog; settings: background; cited from earlier work
[2] = tested on: phosphodiesterase enzymes; settings: background; cited from earlier work
[3] = tested on: isolated guinea pig uteri; test: Smooth muscle relaxation of isolated guinea pig uteri; settings: 2-10 μg/ml
[4] = tested on: rats; test: Anti-inflammatory test (Winter et al.), foot volume in rats; format: in vivo, rat; settings: oral, 100 mg/kg
Text: Following the procedure of C. A. Winter, et al as described in the Proc. Exper.

[5] = tested on: 3',5'-Cyclic AMP phosphodiesterase (PDE) from lung; test: 3',5'-Cyclic AMP phosphodiesterase (PDE) inhibition, rabbit lung enzyme (Fraction II, low Km); format: biochemical; settings: relative to theophylline, cAMP about 1.7 × 10^-7 M, 30° C., 10 minutes, pH 7.5
[6] = tested on: 3',5'-Cyclic AMP phosphodiesterase (PDE) from kidney; test: 3',5'-Cyclic AMP phosphodiesterase (PDE) inhibition, rabbit kidney enzyme (Fraction II, low Km); format: biochemical; settings: relative to theophylline, cAMP about 1.7 × 10^-7 M, 30° C., 10 minutes, pH 7.5
[7] = tested on: isolated guinea pig heart preparation; test: Coronary dilation in isolated guinea pig heart preparation; settings: 10 μg/ml, preliminary
[8] = tested on: isolated guinea pig heart preparation; test: Inotropic effect in isolated guinea pig heart preparation; settings: 10 μg/ml
[9] = Solubility noted in the PDE test (Insoluble); format: physicochemical; settings: compound not tested for PDE inhibition
Experimental: With respect to the compounds which are indicated in Tables I, II and III as being insoluble, although such compounds have not undergone the inhibitory test of Example XVI, due to the similarity in structure to compounds which were tested, it is expected that in vivo testing of the compounds in forms other than solution will readily indicate phosphodiesterase enzyme inhibitory capability.

[10] = tested on: rats; test: Hypotensive activity (Weeks and Jones), mean blood pressure in rats; format: in vivo, rat; settings: oral
Experimental: Exper. Therap., 104, 646 (1960). At an oral dose of 50 mg/kg in rats, there was a % decrease in mean blood pressure at 1, 3, 6 hours of 11%, 13%, and 24%, respectively.

Cc1cc(C)n2ncc(Br)c2n1 [3-bromo-5,7-dimethylpyrazolo[1,5a]pyrimidine]
positive inotropic effect [1]: positive inotropic effect
phosphodiesterase inhibition [2]: significantly more active than theophylline against various phosphodiesterase enzymes

Cc1cc(O)n2nc(SCc3ccccc3)nc2n1 [Compound 24, 2-benzylthio-7-hydroxy-5-methyl-s-triazolo[1,5a]pyrimidine]
smooth muscle relaxation [3]: smooth muscle relaxants
anti-inflammatory activity [4]: significant activity
inhibition of foot volume [4]: 43%
PDE Lung; α (I50 theophylline / I50 compound) [5]: 0.75
PDE Kidney; α (I50 theophylline / I50 compound) [6]: 0.75
coronary dilation [7]: coronary dialation

CCN(CC)c1cc(C)nc2nc(SCc3ccccc3)nn12 [Compound 27, 2-benzylthio-7-diethylamino-5-methyl-s-triazole[1,5a]pyrimidine]
smooth muscle relaxation [3]: smooth muscle relaxants
PDE Lung; α (I50 theophylline / I50 compound) [5]: 4.20
PDE Kidney; α (I50 theophylline / I50 compound) [6]: 2.30
coronary dilation [7]: coronary dialation

Cc1cc(N(CCO)CCO)n2nc(SCc3ccccc3)nc2n1 [Compound 29, 2-benzylthio-7-[bis(β-hydroxyethyl)amino]-5-methyl-s-triazolo[1,5a]pyrimidine]
smooth muscle relaxation [3]: smooth muscle relaxants
positive inotropic effect [8]: positive inotropic effect
PDE Lung; α (I50 theophylline / I50 compound) [5]: 2.10
PDE Kidney; α (I50 theophylline / I50 compound) [6]: 2.30
coronary dilation [7]: coronary dialation

Cc1cc(NN)n2nc(SCc3ccccc3)nc2n1 [Compound 32, 2-benzylthio-7-hydrazino-5-methyl-s-triazolo[1,5a]pyrimidine]
Solubility [9]: Insoluble
hypotensive activity ([10]; 25 mg/kg): significant hypotensive activity
hypotensive activity ([10]; 50 mg/kg): significant hypotensive activity
% decrease in mean blood pressure at 1 hour ([10]; 50 mg/kg, 1 hour): 11%
% decrease in mean blood pressure at 3 hours ([10]; 50 mg/kg, 3 hours): 13%
% decrease in mean blood pressure at 6 hours ([10]; 50 mg/kg, 6 hours): 24%

CCCNc1c(C(=O)OCC)cnc2nc(SCc3ccccc3)nn12 [Compound 39, 2-benzylthio-6-carbethoxy-7-n-propylamino-s-triazolo[1,5a]pyrimidine]
PDE Lung; α (I50 theophylline / I50 compound) [5]: 21.0
PDE Kidney; α (I50 theophylline / I50 compound) [6]: 7.0
coronary dilation [7]: coronary dialation

Cn1c(=O)c2[nH]cnc2n(C)c1=O [Theophylline]
phosphodiesterase inhibition [2]: does not selectively inhibit phosphodiesterase; also recorded: not as potent as a phosphodiesterase inhibitor as is desired
